Reference: paper PMC9459060 (Journal of Ginseng Research, 2022)

Target: T1, SLC5A1 (Homo sapiens, UniProt P13866)
T1 sequence (P13866 1-664): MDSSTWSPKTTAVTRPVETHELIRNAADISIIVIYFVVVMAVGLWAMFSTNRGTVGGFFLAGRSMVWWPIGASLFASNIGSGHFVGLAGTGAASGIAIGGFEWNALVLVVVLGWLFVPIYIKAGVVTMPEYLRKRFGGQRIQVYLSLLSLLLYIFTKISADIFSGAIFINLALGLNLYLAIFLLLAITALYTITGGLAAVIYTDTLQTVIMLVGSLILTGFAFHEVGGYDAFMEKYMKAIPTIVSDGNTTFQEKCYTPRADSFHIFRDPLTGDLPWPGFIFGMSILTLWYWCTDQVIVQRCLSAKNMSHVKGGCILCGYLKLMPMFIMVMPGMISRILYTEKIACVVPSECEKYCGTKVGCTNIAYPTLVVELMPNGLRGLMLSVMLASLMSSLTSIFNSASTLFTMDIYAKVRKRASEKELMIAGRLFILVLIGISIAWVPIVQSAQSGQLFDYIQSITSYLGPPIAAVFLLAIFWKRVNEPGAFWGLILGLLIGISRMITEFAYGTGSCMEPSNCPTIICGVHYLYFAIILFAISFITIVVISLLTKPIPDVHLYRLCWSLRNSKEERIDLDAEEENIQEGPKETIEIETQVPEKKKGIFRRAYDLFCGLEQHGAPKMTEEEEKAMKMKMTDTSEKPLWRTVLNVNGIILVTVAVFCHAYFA
Experiment: SPR
Format: binding

With `CC(C)=CCC[C@](C)(O[C@@H]1O[C@H](CO)[C@@H](O)[C@H](O)[C@H]1O)[C@H]1CC[C@]2(C)[C@@H]1[C@H](O)C[C@@H]1[C@@]3(C)CC[C@H](O[C@@H]4O[C@H](CO)[C@@H](O)[C@H](O)[C@H]4O[C@@H]4O[C@H](CO)[C@@H](O)[C@H](O)[C@H]4O)C(C)(C)[C@@H]3CC[C@]12C` [ginsenoside Rd] the Kd was 680 nM.
